In patent US4057684A, “Alkyl amino-glucopyranoside derivative and process for producing the same” (priority 1975, dated 1977):

Experiments:
[1] = tested on: Nakahara-Fukuoka sarcoma (NFS); assay: antitumor effect against Nakahara-Fukuoka sarcoma (NFS) implanted in mice; format: in vivo, mouse (ICR)
Text: (§1) Results of pharmacological studies for amino-glucopyranoside [I] according to the invention are described below. The test compounds which were used included methyl N-carbamyl-N'-(2-chloroethyl)-N'-nitroso-2-amino-2-deoxy-α-D-glucopyranoside and methyl N-carbamyl-N'-(2-chloroethyl)-N'-nitroso-6-amino-6-deoxy-α-D-glucopyranoside (hereinafter abbreviated to 2MCαG and 6MCαG, respectively). The control compounds which were employed were 1-(2-chloroethyl)-3-cyclohexyl-1-nitrosoourea (hereinafter abbreviated to CCNU), which had been widely applied as a control compound in such a pharmacological test of the streptozotocin derivatives, and GCNU referred to previously. The tumor systems which were used were leukemia L-1210, Nakahara-Fukuoka sarcoma, adenocarcinoma-755, ascites sarcoma 180 and Ehrlich ascites carcinoma (hereinafter abbreviated to L-1210, NFS, Ca-755, S-180A and EAC, respectively), and the antitumor activities were determined by a procedure of the National Cancer Center, Tokyo (A. Hoshi et al.: Farumashia 9, 464(1973)). The test animals which were used were ICR and BDF1 mice.
(§2) ^a Treatment was initiated 24 hr after implantation of tumor (day 1):
(§3) D1~5 = qd, day 1~5; D1 = day 1 only.
(§4) ^b T/C is expressed as the tumor weight ratio in solid tumors or tota
(§5) packed cell volume ratio in ascites tumors of treated/control.

[2] = tested on: adenocarcinoma-755 (Ca-755); assay: antitumor effect against adenocarcinoma-755 (Ca-755) implanted in mice; format: in vivo, mouse (BDF1)
Text: as §1, §2, §3, §4, §5

leukemia L-1210 = assay: increase in life span and survival of leukemia L-1210 implanted mice; format: in vivo, mouse (BDF1)
Text: as §1, §2, §3
^d % increase in life span (mean survival time) over controls.
^e 60 days survivors/total in treated group.

[3] = peripheral white blood cell counts (bone marrow toxicity) and survival in normal male ICR mice; format: in vivo, mouse (ICR)
Procedure: Such peripheral white blood cell counts were performed as follows: Normal male ICR mice were used in groups of tens and the test compounds for treatment were made into their respective solutions. 2MCαG and 6MCαG were dissolved in physiological saline solutions, while CCNU and GCNU were suspended in 0.5% CMC aqueous solution and 50% PEG aqueous solution, respectively. A single administration at volume of 1 ml per 100 g body weight of animal (0.1 ml/10 g) was given intraperitoneally, and the peripheral white blood cell counts were performed 3, 8 and 15 days after administration of the test compounds.

[4] = acute toxicity (LD50) in mice; format: in vivo, mouse (ICR)
[5] = blood sugar level / diabetogenic activity; format: in vivo, rat (male Wister); settings: rat, in vivo
bacteria = assay: antibacterial activity, broth dilution method
[6] = tested on: solid as well as ascites tumor systems; assay: antitumor activity in the tumor systems (overall); format: in vivo, mouse; settings: mouse, in vivo
Text: as §1

[7] = 12.5 mg/kg/day ip D1~5, ICR mice
[8] = 25.0 mg/kg/day ip D1~5, ICR mice
[9] = 35.0 mg/kg/day ip D1~5, ICR mice
[10] = 50.0 mg/kg/day ip D1~5, ICR mice
[11] = 6.3 mg/kg/day ip D1~5, BDF1 mice
[12] = 12.5 mg/kg/day ip D1~5, BDF1 mice
[13] = 25.0 mg/kg/day ip D1~5, BDF1 mice
[14] = 50.0 mg/kg/day ip D1~5, BDF1 mice

For `CO[C@H]1O[C@H](CNC(=O)N(CCCl)N=O)[C@@H](O)[C@H](O)[C@H]1O` [Example 6MCαG, methyl N-carbamyl-N'-(2-chloroethyl)-N'-nitroso-6-amino-6-deoxy-α-D-glucopyranoside], the Activity [1, 7] was “- (100~71% = -)”, the T/C [1, 7] was 77.8% and the Activity [1, 8] was “+ (70~51% = +)”. For the same compound, the T/C [1, 8] was 61.6%, the Activity [1, 9] was “++ (50~21% = ++)” and the T/C [1, 9] was 38.8%. The Activity [1, 10] was “Toxic”, the T/C [1, 10] was 34.1% and the died/used [1, 10] was 6/6. The “antitumor effect compared with CCNU” value ([1]; ip, 5 successive days) was “more active than CCNU”, the Activity [2, 11] was “+ (70~51% = +)” and the T/C [2, 11] was 53.4%. The Activity [2, 12] was “+++ (20~0% = +++)”, the T/C [2, 12] was 16.3% and the Activity [2, 13] was “+++ (20~0% = +++)”. The T/C [2, 13] was 7.6%, the Activity [2, 14] was “Toxic” and the T/C [2, 14] was 0%. The died/used [2, 14] was 6/6, the “antitumor effect compared with CCNU” value ([2]; ip, 5 successive days) was “more active than CCNU” and the ILS (leukemia L-1210; 3.0 mg/kg/day ip D1~5) was > 292%. The “Survivors (60 days survivors/total)” value (leukemia L-1210; 3.0 mg/kg/day ip D1~5) was 2/6, the ILS (leukemia L-1210; 6.0 mg/kg/day ip D1~5) was > 639% and the “Survivors (60 days survivors/total)” value (leukemia L-1210; 6.0 mg/kg/day ip D1~5) was 3/6. For the same compound, the ILS (leukemia L-1210; 6.0 mg/kg/day po D1~5) was > 580%, the “Survivors (60 days survivors/total)” value (leukemia L-1210; 6.0 mg/kg/day po D1~5) was 4/6 and the ILS (leukemia L-1210; 10.0 mg/kg/day ip D1~5) was > 645%. The “Survivors (60 days survivors/total)” value (leukemia L-1210; 10.0 mg/kg/day ip D1~5) was 3/6, the ILS (leukemia L-1210; 12.5 mg/kg/day ip D1~5) was > 520% and the “Survivors (60 days survivors/total)” value (leukemia L-1210; 12.5 mg/kg/day ip D1~5) was 4/6. The ILS (leukemia L-1210; 12.5 mg/kg/day po D1~5) was > 570%, the “Survivors (60 days survivors/total)” value (leukemia L-1210; 12.5 mg/kg/day po D1~5) was 4/6 and the ILS (leukemia L-1210; 25.0 mg/kg/day ip D1~5) was > 615%. For the same compound, the “Survivors (60 days survivors/total)” value (leukemia L-1210; 25.0 mg/kg/day ip D1~5) was 4/6, the ILS (leukemia L-1210; 25.0 mg/kg/day po D1~5) was > 620% and the “Survivors (60 days survivors/total)” value (leukemia L-1210; 25.0 mg/kg/day po D1~5) was 4/6. For the same compound, the ILS (leukemia L-1210; 35.0 mg/kg ip D1 only) was > 717%, the “Survivors (60 days survivors/total)” value (leukemia L-1210; 35.0 mg/kg ip D1 only) was 6/6 and the ILS (leukemia L-1210; 40.0 mg/kg/day ip D1~5) was > 237%. For the same compound, the “Survivors (60 days survivors/total)” value (leukemia L-1210; 40.0 mg/kg/day ip D1~5) was 2/6, the ILS (leukemia L-1210; 45.0 mg/kg ip D1 only) was > 717% and the “Survivors (60 days survivors/total)” value (leukemia L-1210; 45.0 mg/kg ip D1 only) was 6/6. The ILS (leukemia L-1210; 6-25 mg/kg/day, 5 successive administrations, ip or orally) was 520-645%, the “activity against L-1210 compared with CCNU and GCNU” value (leukemia L-1210; mouse, in vivo) was “more active against L-1210” and the ILS (leukemia L-1210; single ip, 35-45 mg/kg) was 717%. The animals survived (leukemia L-1210; single ip, 35-45 mg/kg) was “all six animals survived”, the “Death rate (death/used)” value ([3]; 40 mg/kg ip single) was 0/10 and the “Average count of WBC” value ([3]; 40 mg/kg ip single, day 3) was 73.2±3.5 x 10^2 WBC/mm^3. For the same compound, the “Average count of WBC” value ([3]; 40 mg/kg ip single, day 8) was 105.7±3.8 x 10^2 WBC/mm^3, the “Average count of WBC” value ([3]; 40 mg/kg ip single, day 15) was 136.9±10.0 x 10^2 WBC/mm^3 and the “Death rate (death/used)” value ([3]; 60 mg/kg ip single) was 0/10. The “Average count of WBC” value ([3]; 60 mg/kg ip single, day 3) was 41.1±4.1 x 10^2 WBC/mm^3, the “Average count of WBC” value ([3]; 60 mg/kg ip single, day 8) was 73.5±5.8 x 10^2 WBC/mm^3 and the “Average count of WBC” value ([3]; 60 mg/kg ip single, day 15) was 110.4±6.3 x 10^2 WBC/mm^3. The “Death rate (death/used)” value ([3]; 100 mg/kg ip single) was 2/10, the “Average count of WBC” value ([3]; 100 mg/kg ip single, day 3) was 31.2±2.5 x 10^2 WBC/mm^3 and the “Average count of WBC” value ([3]; 100 mg/kg ip single, day 8) was 71.9±4.9 x 10^2 WBC/mm^3. The “Average count of WBC” value ([3]; 100 mg/kg ip single, day 15) was 99.8±10.8 x 10^2 WBC/mm^3, the “Death rate (death/used)” value ([3]; 150 mg/kg ip single) was 10/10 and the “Average count of WBC” value ([3]; 150 mg/kg ip single, day 3) was 28.1±3.8 x 10^2 WBC/mm^3. The “Average count of WBC” value ([3]; 150 mg/kg ip single, day 8) was 61.0 x 10^2 WBC/mm^3, the incidence of leukopenia ([3]; LD10 doses) was “comparatively mild with rapid return to pretreatment levels” and the “acute toxicity compared with GCNU or CCNU” value ([3]; mouse, in vivo) was “much lower than that of either GCNU or CCNU”. For the same compound, the bone marrow toxicity ([3]; mouse, in vivo) was “improved bone marrow toxicity”, the “bone marrow toxicity compared with CCNU” value ([3]; mouse, in vivo) was “less toxic” and the “bone marrow toxicity compared with GCNU” value ([3]; mouse, in vivo) was “equivalent values as GCNU”. The “toxicity compared with 2MCαG” value ([4]; by LD50, single administration) was “less toxic than 2MCαG”, the LD50 ([4]; mouse, in vivo, single administration) was 91 mg/kg and the diabetogenic activity [5] was “free from diabetogenic”. For the same compound, the antibacterial activity (bacteria) was “free from diabetogenic and antibacterial activities” and the antitumor activity [6] was “activity against solid as well as ascites tumor systems”.
